Reference: the supplement of paper PMC7600603

Tests used:
DLD1 NRF2-WT [1] = test: drug sensitivity score (DSS) cytotoxicity (DSS score); higher = more toxic; extreme values may be limits of the assay; details: 72 h; CellTox Green cytotoxicity
Outline: (§1)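 Isogenic DLD1 colorectal cancer cells, either NRF2 wild-type or CRISPR gain-of-function, were grown in DMEM with 10% FBS. They were exposed in 384-well plates to library compounds at 5 concentrations spanning a 10,000-fold range. After 72 h, cytotoxicity was read by CellTox Green on a Pherastar FS reader and normalised to vehicle wells and 100-μM positive-control wells. TC50 and drug sensitivity score (a normalised area under the curve) came from logistic dose-response fits.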

DLD1 NRF2-GOF [2] = test: as above; details: 72 h; CellTox Green cytotoxicity
Outline: as §1

DLD1 NRF2-WT [3] = test: TC50 cytotoxicity; higher = less toxic; details: 72 h; CellTox Green cytotoxicity
Outline: as §1

DLD1 NRF2-GOF [4] = test: TC50 cytotoxicity; higher = less toxic; details: 72 h; CellTox Green cytotoxicity
Outline: as §1

DLD1 NRF2-GOF [5] = test: drug sensitivity score (DSS) viability (DSS score); higher = more sensitive; extreme values may be limits of the assay; details: 72 h; CellTiter-Glo viability
Outline: as §1, with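 “viability” for “cytotoxicity”, “CellTiter-Glo” for “CellTox Green”, “EC50” for “TC50”, “from four-parameter” for “from”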

DLD1 NRF2-WT [6] = details: 72 h; CellTiter-Glo viability
Outline: as §1, with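 “viability” for “cytotoxicity”, “CellTiter-Glo” for “CellTox Green”, “EC50” for “TC50”, “from four-parameter” for “from”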

DLD1 NRF2-WT [7] = test: drug sensitivity score (DSS) viability (DSS score); higher = more sensitive; extreme values may be limits of the assay; details: 72 h; CellTiter-Glo viability
Outline: as §1, with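 “viability” for “cytotoxicity”, “CellTiter-Glo” for “CellTox Green”, “EC50” for “TC50”, “from four-parameter” for “from”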

Row | Compound | EC50 viability (DLD1 NRF2-WT [6]) [µM] | drug sensitivity score (DLD1 NRF2-WT [1]) | drug sensitivity score (DLD1 NRF2-GOF [2]) | TC50 cytotoxicity (DLD1 NRF2-WT [3]) [µM] | TC50 cytotoxicity (DLD1 NRF2-GOF [4]) [µM] | drug sensitivity score (DLD1 NRF2-GOF [5]) | drug sensitivity score (DLD1 NRF2-WT [7])
1 | CONC(=O)c1ccccc1Nc1cc(Nc2cc(C)nn2C(C)C)ncc1Cl | – | 0 | 0 | > 1 | > 1 | 1.6 | –
2 | COc1cc2ncnc(Oc3cccc(NC(=O)Nc4cc(C(C)(C)C(F)(F)F)on4)c3)c2cc1OC | > 10 | 0 | 0 | > 10 | > 10 | 0.6 | 1.4
3 | Cc1nn(C)c(COc2ccc(N3CCN(S(=O)(=O)N(C)C)CC3)cc2)c1-c1cccc2c(CCCOc3cccc4ccccc34)c(C(=O)O)n(CCN3CCOCC3)c12 | > 50 | 0 | 0 | > 50 | > 50 | 2.1 | 1.9
4 | O=C1Cc2cc(C(=O)NC3C[C@H]4CC[C@@H](C3)N4S(=O)(=O)CC3CCN(CCCC(F)(F)F)CC3)c(Cl)cc2N1 (stereo partly drawn) | > 10 | 0 | 0 | > 10 | > 10 | 4.1 | 0
5 | O=c1[nH]c(C2CCCN2)nc2c1oc1ccc(Cl)cc12 (stereo not drawn) | > 10 | 0 | 0 | > 10 | > 10 | 0.7 | 0.9
6 | C[C@@H](Nc1cc(F)cc(F)c1)c1cc(C(=O)N(C)C)cc2c(=O)cc(N3CCOCC3)oc12 [AZD-8186] | 0.0598 | 0 | 0 | > 1 | > 1 | 5.2 | 3.6
7 | Cc1c(N)nc([C@H](CC(N)=O)NC[C@H](N)C(N)=O)nc1C(=O)N[C@H](C(=O)N[C@H](C)[C@@H](O)[C@H](C)C(=O)N[C@H](C(=O)NCCc1nc(-c2nc(C(=O)NCCC[S+](C)C)cs2)cs1)[C@@H](C)O)[C@@H](O[C@@H]1O[C@@H](CO)[C@@H](O)[C@H](O)[C@@H]1O[C@H]1O[C@H](CO)[C@@H](O)[C@H](OC(N)=O)[C@@H]1O)c1c[nH]cn1 [Bleomycin] | > 10 | 0 | 0 | > 10 | > 10 | 2.6 | 0.4
8 | Cc1nc2cccc(N)c2c(=O)n1C1CCC(=O)NC1=O (stereo not drawn) [CC122] | > 10 | 0 | 0 | > 10 | > 10 | 2.7 | 3.2
9 | CCC(C)n1ncn(-c2ccc(N3CCN(c4ccc(OCC5COC(Cn6cncn6)(c6ccc(Cl)cc6Cl)O5)cc4)CC3)cc2)c1=O (stereo not drawn) [Itraconazole] | > 5 | 0 | 0 | > 5 | > 5 | – | 0.4
10 | O=C(CCNC(=O)c1ccc(OC(F)(F)F)cc1)N[C@@H]1CCCc2ccccc21 [ML390] | > 50 | 0 | 0 | > 50 | > 50 | – | 1.9
11 | O=C(Nc1cccc(NC(=O)c2cccc(O)c2O)c1)c1cccc(O)c1O [MST-312] | 0.238 | 0 | 0 | > 10 | > 10 | – | 10.4
12 | C[C@H]1C[C@@H]2[C@H]([C@@H](O)C[C@@]3(C)[C@H]2CC[C@]3(O)C(=O)CO)[C@@]2(C)C=CC(=O)C=C12 [Methylprednisolone] | – | 0 | 0 | > 10 | > 10 | 2.9 | –
13 | CCCCCCCCCCCCCCCCOP(=O)([O-])OCC[N+](C)(C)C [Miltefosine] | 7.67 | 11 | 9.7 | 7.4 | 10.4 | – | 13.1
14 | C=CC(=O)Nc1cccc(Oc2nc(Nc3ccc(N4CCN(C)CC4)cc3)nc3ccsc23)c1 [Olmutinib] | – | 0 | 0 | > 1 | > 1 | 2.8 | 2.6
15 | C[C@]12C=CC(=O)C=C1CC[C@@H]1[C@@H]2[C@@H](O)C[C@@]2(C)[C@H]1CC[C@]2(O)C(=O)CO [Prednisolone] | – | 0 | 0 | > 10 | > 10 | 1 | –
16 | CNCc1ccc(-c2[nH]c3cc(F)cc4c3c2CCNC4=O)cc1 [Rucaparib] | – | 0 | 0 | > 10 | > 10 | 2.7 | 0.8
17 | Clc1ccccc1C(c1ccccc1)(c1ccccc1)n1cccn1 [TRAM-34] | > 1 | – | – | – | – | 6.4 | 2.2
18 | CNC(=O)c1cc(COc2nnc(Nc3ccc(Cl)cc3)c3ccoc23)ccn1 [Telatinib] | – | 0 | 0 | > 10 | > 10 | 2.6 | 6.9
19 | COc1cc2/c(=N/c3ccc(Br)cc3F)nc[nH]c2cc1OCC1CCN(C)CC1 [Vandetanib] | – | 0 | 0 | > 1 | > 1 | 2.3 | 6.9

The next lines start with results.

Row | EC50 viability (DLD1 NRF2-WT [6]) [µM] | Compound | drug sensitivity score (DLD1 NRF2-WT [1]) | drug sensitivity score (DLD1 NRF2-GOF [2]) | TC50 cytotoxicity (DLD1 NRF2-WT [3]) [µM] | TC50 cytotoxicity (DLD1 NRF2-GOF [4]) [µM] | drug sensitivity score (DLD1 NRF2-GOF [5]) | drug sensitivity score (DLD1 NRF2-WT [7])
20 | 0.102 | CCS(=O)(=O)Nc1ccc(Oc2ccc(F)cc2F)c(-c2cn(C)c(=O)c3[nH]ccc23)c1 [Mivebresib] | 0 | 0 | > 10 | > 10 | – | 14.7
21 | 3.29 | Nc1ccccc1NC(=O)c1ccc(CNc2nccc(-c3cccnc3)n2)cc1 [Mocetinostat] | 1.6 | 0 | > 10 | > 10 | – | 4
22 | 2.38 | COc1cc2c(cc1OC(C)C)[C@H](c1ccc(Cl)cc1)N(c1ccc(N(C)C[C@H]3CC[C@H](N4CCN(C)C(=O)C4)CC3)cc1)C(=O)C2 [NVP-CGM097] | 0 | 0 | > 25 | > 25 | – | 3.4
23 | 3.95 | CC1(C)CCC(c2ccc(Cl)cc2)=C(CN2CCN(c3ccc(C(=O)NS(=O)(=O)c4ccc(N[C@H](CCN5CCOCC5)CSc5ccccc5)c(S(=O)(=O)C(F)(F)F)c4)cc3)CC2)C1 [Navitoclax] | 4 | 2.1 | 1.55 | 1.89 | – | 2.1
24 | 1.86 | OC[C@H]1O[C@@H](n2cnc3c2N=CNC[C@H]3O)C[C@@H]1O [Pentostatin] | – | – | – | – | 1.6 | 2.5
25 | > 2.5 | CCCCCCCCCCCCCCCCCCOP(=O)([O-])OC1CC[N+](C)(C)CC1 [Perifosine] | 0.9 | 0.6 | > 2.5 | > 2.5 | – | 0.3
26 | 0.119 | CO[C@H](C(=O)[C@@H](O)[C@@H](C)O)[C@@H]1Cc2cc3cc(O[C@H]4C[C@@H](O[C@H]5C[C@@H](O)[C@H](O)[C@@H](C)O5)[C@@H](O)[C@@H](C)O4)c(C)c(O)c3c(O)c2C(=O)[C@H]1O[C@H]1C[C@@H](O[C@H]2C[C@@H](O[C@H]3C[C@](C)(O)[C@H](O)[C@@H](C)O3)[C@H](O)[C@@H](C)O2)[C@H](O)[C@@H](C)O1 [Plicamycin] | 1.7 | 0 | > 10 | > 10 | – | 21.8
27 | > 10 | CC[C@H](C)C(=O)O[C@H]1C[C@H](O)C=C2C=C[C@H](C)[C@H](CC[C@@H](O)C[C@@H](O)CC(=O)O)[C@H]21 [Pravastatin] | 0 | 0 | > 10 | > 10 | – | 0
28 | 1.69 | Cc1nc(C(=O)NCC(=O)O)c(O)c2ccc(Oc3ccccc3)cc12 [Roxadustat] | 0 | 0 | > 10 | > 10 | – | 2.5
29 | 9.91 | COc1ccc(CCc2nc3cc(-c4c(C)noc4C)ccc3n2C[C@H](C)N2CCOCC2)cc1Cl [SGC-CBP30] | 0.8 | 0.2 | > 25 | > 25 | – | 2.2
30 | 3.47 | CN1CCC(CNc2ccc3ncc(-c4cccc(OC(F)(F)F)c4)n3n2)CC1 [SGI-1776] | 4.5 | 3.1 | 2.68 | 3.14 | – | 5
31 | 4.17 | CC[C@H](CO)Nc1nc(NCc2ccccc2)c2ncn(C(C)C)c2n1 [Seliciclib] | 0 | 0 | > 10 | > 10 | – | 1.1
32 | > 10 | COc1cc(Nc2ncc(F)c(Nc3ccc4c(n3)NC(=O)C(C)(C)O4)n2)cc(OC)c1OC [Tamatinib] | 0 | 0 | > 10 | > 10 | – | 1
33 | 4.36 | CC/C(=C(\c1ccccc1)c1ccc(OCCN(C)C)cc1)c1ccccc1 [Tamoxifen] | 0 | 0 | > 10 | > 10 | – | 2
34 | 0.037 | CC(=O)Nc1cccc(-n2c(=O)n(C3CC3)c(=O)c3c(Nc4ccc(I)cc4F)n(C)c(=O)c(C)c32)c1 [Trametinib] | 0 | 0 | > 0.25 | > 0.25 | – | 3.1
35 | 0.0504 | C=CC(=O)N1CC/C(=C\c2ccc(F)c([N+](=O)[O-])c2)C(=O)/C(=C/c2ccc(F)c([N+](=O)[O-])c2)C1 [VLX1570] | 21.9 | 2.7 | 0.0677 | 5.34 | – | 27.9
